Reference: patent publication US8049063B2 (Zhejiang University, priority 2005, dated 2011)

How the values were obtained:
8077S calli = assay type: cell-based, rice
Excerpt: FIG. 6. Bensulfuron-methyl selection results of Cyp81A6-transformed 8077S calli. Left: transgenic; right: non-transgenic control.
(§1) The full length sequence of candidate gene Cyp81A6 was obtained through lump-sum amplification using LA TaqTM polymerase reagent kit purchased from Takara Company. The long fragment PCR specific primer pairs (forward primer: 5′-[…]-3′ (SEQ ID NO: 40); reverse primer: 5″-[…]-3′ (SEQ ID NO: 41), synthesized by Shanghai Sangon) used in this experiment were designated at a start from 124 bp before and end with 4145 bp after BamHI enzyme digestion site located at 5′-end of Cyp81A6 gene, respectively, according to the DNA sequence publicized by indica rice genome database. According to the designing, these primers have a BstEII enzyme cutting site attached to the 3′-end of the primers, which is convenient for production of cohesive end and ligation during cloning. The amplified fragment with the total size of […] by this pair of primers is consisted of those parts: 124 bp upstream sequence of the BamHI digestion site, 1321 bp promoter sequence, 2321 bp sequence of leader region plus exon plus intron , 272 bp 3′-UTR sequence, followed by 288 bp genome sequence (including the 7 bp BstEII recognition site and 5 bp protection base). […]

[1] = tested on: Cyp81A6 antisense RNA transformed Minghui 63 plants; experiment: Bentazon leaf smear test of Cyp81A6 antisense RNA transformed Minghui 63 plants; assay type: in vivo, rice; conditions: 1250 mg/L smeared on leaves, 3 leaves/plant; antisense transgenic Minghui 63; 36 hours later
Excerpt: Design anti-sense RNA (RNAi) sequences (see the 1939th to 2439th nucleotide sequence of SEQ ID NO.1) in according with the coding sequence of the cloned rice Cyp81A6 gene. Fuse these antisense RNA (RNAi) sequence to the rice constitutive expression promoter such as Actin1 and then insert them into the binary vectors of pAANT11 (see FIG. 16). Use this vector to transform wild-type rice such as Minghui 63 using the modified procedures of Agrobacterium-mediated transformation method. After that, use the specific primers to carry on the PCR amplification analysis of transgenic TO generation plants for molecular confirmation.

[2] = tested on: Cyp81A6 transgenic 8077S plants; experiment: Bentazon test of Cyp81A6 transgenic 8077S seedlings (complementation); assay type: in vivo, rice
Excerpt: FIG. 7. […] Left: negative control of 8077S; middle: transgenic seedling; right: positive control of W6154S.
as §1

Row | SMILES | growth of non-transgenic calli on herbicide medium (8077S calli) | outcome of treated leaves and plants [1] | response of PCR-positive Cyp81A6 transformants to bentazon ([2]; 1250 mg/l, regenerated transgenic 8077S plantlets) | resistance of transgenic line carrying the entire CYP81A6 sequence ([2]; 8077S mutant genome transformed with entire CYP81A6 gene)
1 | COC(=O)c1ccccc1CS(=O)(=O)NC(=O)Nc1nc(OC)cc(OC)n1 [BSM, bensulfuron-methyl] | stop to grow |  |  | 
2 | CC(C)N1C(=O)c2ccccc2NS1(=O)=O [bentazon] |  | faded and died | recovered the resistance | highly resistant
